Literature values as cited in US20150182481A1, “USE OF POLYMER D-LACTIC ACID (PDLA) TO TREAT PAIN” (priority 2013, published 2015).

How the values were obtained:
[1] = tested on: nerve poisoned by iodoacetic acid (I.A.A.) and continuously tetanized; conditions: I.A.A. solution containing lactate 180 mg/100 cc
C fibers = conditions: 300 mM lactic acid injection

SMILES: CC(O)C(=O)[O-].[Na+] (stereo not shown) [sodium lactate]
- effect on sustained galvanic contractions of the nerve [1]: enhances repeated nerve tetanization

SMILES: C[C@H](O)C(=O)O [lactic acid, L-Lactic acid]
- firing of C fibers (C fibers): increase firing of C fibers

SMILES: C[C@@H](O)C(=O)O [d-lactic acid]
- plasma d-lactate in asymptomatic exercising subjects (asymptomatic exercising subjects): 12 mM
- average plasma concentration at which neurotoxic (reversible altered mental status, dysarthria, ataxia): 7.98 mM
